Key:
SETFA = assay: greenhouse pre-emergence herbicidal test; format: in vivo, Setaria faberi; conditions: pre-emergence method, scale from 0 to 100
Excerpt: (§1) The seeds of the test plants were sown separately for each species. For the pre-emergence treatment, the active ingredients, which had been suspended or emulsified in water, were applied directly after sowing by means of finely distributing nozzles. The containers were irrigated gently to promote germination and growth and subsequently covered with transparent plastic hoods until the plants had rooted. This cover caused uniform germination of the test plants, unless this had been impaired by the active ingredients. Depending on the species, the plants were kept at 10-25° C. or 20-35° C., respectively. The test period extended over 2 to 4 weeks. During this time, the plants were tended, and their response to the individual treatments was evaluated. Evaluation was carried out using a scale from 0 to 100. 100 means no emergence of the plants, or complete destruction of at least the aerial moieties, and 0 means no damage, or normal course of growth. […] The plants used in the greenhouse experiments were of the following species: [table]

AMARE = assay: greenhouse post-emergence herbicidal test; format: in vivo, Amaranthus retroflexus; conditions: post-emergence method, scale from 0 to 100
How it was run: (§2)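 Plants grown to 3 to 15 cm, then sprayed with active ingredient suspended or emulsified in water; kept at 10-25° C. or 20-35° C. by species. Damage scored after 2 to 4 weeks on a 0 to 100 scale, 100 meaning no emergence or complete aerial destruction, 0 normal growth.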

SETVI = assay: greenhouse post-emergence herbicidal test; format: in vivo, Setaria viridis; conditions: post-emergence method, scale from 0 to 100
Excerpt: (§3) The seeds of the test plants were sown separately for each species. For the post-emergence treatment, the test plants were first grown to a height of 3 to 15 cm, depending on the plant habit, and only then treated with the active ingredients which had been suspended or emulsified in water. For this purpose, the test plants were either sown directly and grown in the same containers, or they were first grown separately as seedlings and transplanted into the test containers a few days prior to treatment. Depending on the species, the plants were kept at 10-25° C. or 20-35° C., respectively. The test period extended over 2 to 4 weeks. During this time, the plants were tended, and their response to the individual treatments was evaluated. Evaluation was carried out using a scale from 0 to 100. 100 means no emergence of the plants, or complete destruction of at least the aerial moieties, and 0 means no damage, or normal course of growth. […] The plants used in the greenhouse experiments were of the following species: [table]

ECHCG [1] = assay: greenhouse post-emergence herbicidal test; format: in vivo, Echinocloa crus-galli; conditions: post-emergence method, scale from 0 to 100
How it was run: as §2

APESV = assay: greenhouse pre-emergence herbicidal test; format: in vivo, Apera spica-venti; conditions: pre-emergence method, scale from 0 to 100
How it was run: (§4)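 Damage was rated on a 0 to 100 scale, where 0 is normal growth and 100 is no emergence or full destruction of aerial parts, after 2 to 4 weeks. Treatment was applied pre-emergence, right after sowing, as an aqueous suspension or emulsion via fine nozzles.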

ALOMY [2] = assay: greenhouse post-emergence herbicidal test; format: in vivo, Alopercurus myosuroides; conditions: post-emergence method, application rate 1000 g/ha, scale from 0 to 100
How it was run: as §2

ECHCG [3] = assay: greenhouse pre-emergence herbicidal test; format: in vivo, Echinocloa crus-galli; conditions: pre-emergence method, scale from 0 to 100
How it was run: as §4

POLCO = assay: greenhouse post-emergence herbicidal test; format: in vivo, Polygonum convolvulus; conditions: post-emergence method, application rate 500 g/ha, scale from 0 to 100
How it was run: as §2

AVEFA = assay: greenhouse post-emergence herbicidal test; format: in vivo, Avena fatua; conditions: post-emergence method, scale from 0 to 100
How it was run: as §2

ALOMY [4] = assay: greenhouse pre-emergence herbicidal test; format: in vivo, Alopercurus myosuroides; conditions: pre-emergence method, application rate 500 g/ha, scale from 0 to 100
Excerpt: as §1

ABUTH = assay: greenhouse post-emergence herbicidal test; format: in vivo, Abutilon theophrasti; conditions: post-emergence method, application rate 500 g/ha, scale from 0 to 100
Excerpt: as §3

## CSc1ncc(-c2ccccc2S(C)(=O)=O)c(C(=O)O)n1 [example 114]
SETFA; application rate 2000 g/ha
  herbicidal activity against SETFA: very good (a very good herbicidal activity is given at values of at least 85)

## CSc1ncc(-c2ccc(C#N)cc2C)c(C(=O)O)n1 [example 96]
AMARE; application rate 2000 g/ha
  herbicidal activity against AMARE: very good (a very good herbicidal activity is given at values of at least 85)
SETVI; application rate 2000 g/ha
  herbicidal activity against SETVI: very good (a very good herbicidal activity is given at values of at least 85)

## CCOc1cccc(Br)c1-c1cnc(C2CC2)nc1C(=O)O [example 303]
ECHCG [1]; application rate 1000 g/ha
  herbicidal activity against ECHCG: very good (a very good herbicidal activity is given at values of at least 85)
SETFA; application rate 1000 g/ha
  herbicidal activity against SETFA: very good (a very good herbicidal activity is given at values of at least 85)
APESV; application rate 1000 g/ha
  herbicidal activity against APESV: very good (a very good herbicidal activity is given at values of at least 85)

## CCOC(=O)c1nc(OC)ncc1-c1cc(C)c(F)cc1C [example 64]
AMARE; application rate 1000 g/ha
  herbicidal activity against AMARE: very good (a very good herbicidal activity is given at values of at least 85)
SETVI; application rate 1000 g/ha
  herbicidal activity against SETVI: very good (a very good herbicidal activity is given at values of at least 85)
ALOMY [2]
  herbicidal activity against ALOMY: very good (a very good herbicidal activity is given at values of at least 85)

## COC(=O)c1nc(C(C)C)ncc1-c1ccccc1C [example 37]
ECHCG [3]; application rate 1000 g/ha
  herbicidal activity against ECHCG: very good (a very good herbicidal activity is given at values of at least 85)
ECHCG [1]; application rate 1000 g/ha
  herbicidal activity against ECHCG: very good (a very good herbicidal activity is given at values of at least 85)
SETFA; application rate 1000 g/ha
  herbicidal activity against SETFA: very good (a very good herbicidal activity is given at values of at least 85)

## COC(=O)c1nc(C2CC2)ncc1-c1cc(OC)ccc1Cl [example 206]
ECHCG [3]; application rate 500 g/ha
  herbicidal activity against ECHCG: very good (a very good herbicidal activity is given at values of at least 85)
ECHCG [1]; application rate 500 g/ha
  herbicidal activity against ECHCG: good (A good herbicidal activity is given at values of at least 70)
SETVI; application rate 500 g/ha
  herbicidal activity against SETVI: good (A good herbicidal activity is given at values of at least 70)
APESV; application rate 500 g/ha
  herbicidal activity against APESV: very good (a very good herbicidal activity is given at values of at least 85)

## Cc1ccc(F)cc1-c1cnc(C2CC2)nc1C(=O)O [example 163]
ECHCG [3]; application rate 1000 g/ha
  herbicidal activity against ECHCG: very good (a very good herbicidal activity is given at values of at least 85)
ECHCG [1]; application rate 1000 g/ha
  herbicidal activity against ECHCG: very good (a very good herbicidal activity is given at values of at least 85)
SETVI; application rate 1000 g/ha
  herbicidal activity against SETVI: very good (a very good herbicidal activity is given at values of at least 85)
APESV; application rate 1000 g/ha
  herbicidal activity against APESV: very good (a very good herbicidal activity is given at values of at least 85)

## O=C(O)c1nc(C2CC2)ncc1-c1ccccc1C(F)(F)F [example 176]
POLCO
  herbicidal activity against POLCO: very good (a very good herbicidal activity is given at values of at least 85)
AVEFA; application rate 500 g/ha
  herbicidal activity against AVEFA: very good (a very good herbicidal activity is given at values of at least 85)
ALOMY [4]
  herbicidal activity against ALOMY: very good (a very good herbicidal activity is given at values of at least 85)
APESV; application rate 500 g/ha
  herbicidal activity against APESV: very good (a very good herbicidal activity is given at values of at least 85)

## COC(=O)c1nc(C2CC2)ncc1-c1c(Br)ccc(C)c1F [example 198]
ECHCG [3]; application rate 500 g/ha
  herbicidal activity against ECHCG: very good (a very good herbicidal activity is given at values of at least 85)
ABUTH
  herbicidal activity against ABUTH: very good (a very good herbicidal activity is given at values of at least 85)
SETVI; application rate 500 g/ha
  herbicidal activity against SETVI: very good (a very good herbicidal activity is given at values of at least 85)
APESV; application rate 500 g/ha
  herbicidal activity against APESV: very good (a very good herbicidal activity is given at values of at least 85)

## O=C(O)c1nc(C2CC2)ncc1-c1c(F)cccc1I [example 317]
ECHCG [3]; application rate 1000 g/ha
  herbicidal activity against ECHCG: very good (a very good herbicidal activity is given at values of at least 85)
SETVI; application rate 1000 g/ha
  herbicidal activity against SETVI: very good (a very good herbicidal activity is given at values of at least 85)
ALOMY [2]
  herbicidal activity against ALOMY: very good (a very good herbicidal activity is given at values of at least 85)
AVEFA; application rate 1000 g/ha
  herbicidal activity against AVEFA: very good (a very good herbicidal activity is given at values of at least 85)
APESV; application rate 1000 g/ha
  herbicidal activity against APESV: very good (a very good herbicidal activity is given at values of at least 85)

## COC(=O)c1nc(C2CC2)ncc1-c1ccccc1[N+](=O)[O-] [example 223]
ECHCG [3]; application rate 1000 g/ha
  herbicidal activity against ECHCG: very good (a very good herbicidal activity is given at values of at least 85)
ECHCG [1]; application rate 1000 g/ha
  herbicidal activity against ECHCG: very good (a very good herbicidal activity is given at values of at least 85)
SETVI; application rate 1000 g/ha
  herbicidal activity against SETVI: very good (a very good herbicidal activity is given at values of at least 85)
APESV; application rate 1000 g/ha
  herbicidal activity against APESV: very good (a very good herbicidal activity is given at values of at least 85)

## CCOC(=O)c1nc(C2CC2)ncc1-c1ccccc1Cl [example 251]
AMARE; application rate 500 g/ha
  herbicidal activity against AMARE: very good (a very good herbicidal activity is given at values of at least 85)
ABUTH
  herbicidal activity against ABUTH: very good (a very good herbicidal activity is given at values of at least 85)
ALOMY [4]
  herbicidal activity against ALOMY: very good (a very good herbicidal activity is given at values of at least 85)
APESV; application rate 500 g/ha
  herbicidal activity against APESV: very good (a very good herbicidal activity is given at values of at least 85)

## CSc1ncc(-c2ccc(C(F)(F)F)cc2C)c(C(=O)O)n1 [example 99]
AMARE; application rate 2000 g/ha
  herbicidal activity against AMARE: very good (a very good herbicidal activity is given at values of at least 85)
ECHCG [1]; application rate 2000 g/ha
  herbicidal activity against ECHCG: good (A good herbicidal activity is given at values of at least 70)
SETVI; application rate 2000 g/ha
  herbicidal activity against SETVI: very good (a very good herbicidal activity is given at values of at least 85)

## Cc1ccccc1-c1cnc(S(C)(=O)=O)nc1C(=O)O [example 127]
SETFA; application rate 2000 g/ha
  herbicidal activity against SETFA: good (A good herbicidal activity is given at values of at least 70)

## COc1ccc(-c2cnc(SC)nc2C(=O)O)c(OC)c1 [example 109]
SETVI; application rate 2000 g/ha
  herbicidal activity against SETVI: good (A good herbicidal activity is given at values of at least 70)

## CSc1ncc(-c2cc(C)ccc2Cl)c(C(=O)O)n1 [example 86]
ECHCG [3]; application rate 1000 g/ha
  herbicidal activity against ECHCG: good (A good herbicidal activity is given at values of at least 70)
SETFA; application rate 1000 g/ha
  herbicidal activity against SETFA: good (A good herbicidal activity is given at values of at least 70)

## COC(=O)c1nc(C2CC2)ncc1-c1c(Cl)cccc1C(F)(F)F [example 302]
AMARE; application rate 1000 g/ha
  herbicidal activity against AMARE: very good (a very good herbicidal activity is given at values of at least 85)
ECHCG [1]; application rate 1000 g/ha
  herbicidal activity against ECHCG: very good (a very good herbicidal activity is given at values of at least 85)
SETFA; application rate 1000 g/ha
  herbicidal activity against SETFA: very good (a very good herbicidal activity is given at values of at least 85)

## CNC(=O)c1nc(C2CC2)ncc1-c1ccccc1Cl [example 289]
ECHCG [3]; application rate 1000 g/ha
  herbicidal activity against ECHCG: good (A good herbicidal activity is given at values of at least 70)
SETVI; application rate 1000 g/ha
  herbicidal activity against SETVI: good (A good herbicidal activity is given at values of at least 70)
APESV; application rate 1000 g/ha
  herbicidal activity against APESV: very good (a very good herbicidal activity is given at values of at least 85)

## Cc1ccc(Cl)c(-c2cnc(C3CC3)nc2C(=O)O)c1 [example 144]
ECHCG [3]; application rate 500 g/ha
  herbicidal activity against ECHCG: very good (a very good herbicidal activity is given at values of at least 85)
POLCO
  herbicidal activity against POLCO: very good (a very good herbicidal activity is given at values of at least 85)
SETVI; application rate 500 g/ha
  herbicidal activity against SETVI: very good (a very good herbicidal activity is given at values of at least 85)
APESV; application rate 500 g/ha
  herbicidal activity against APESV: very good (a very good herbicidal activity is given at values of at least 85)

## Cc1cc(F)c(-c2cnc(C3CC3)nc2C(=O)O)cc1Cl [example 137]
AMARE; application rate 1000 g/ha
  herbicidal activity against AMARE: very good (a very good herbicidal activity is given at values of at least 85)
SETVI; application rate 1000 g/ha
  herbicidal activity against SETVI: very good (a very good herbicidal activity is given at values of at least 85)

— patent US10420341B2, “Herbicidal phenylpyrimidines” (BASF SE, priority 2015, dated 2019)
